Results taken from ChEMBL document CHEMBL2010698 (J Med Chem, 2012).

How the values were obtained:
Beta-secretase 1 [1] = biological target: T1, Beta-secretase 1 (Homo sapiens, UniProt P56817); test: Inhibition of human recombinant BACE-1 using M-2420 as substrate preincubated for 1 hr prior substrate addition measured after 15 mins by spectrofluorimetry
Acetylcholinesterase [2] = biological target: T2, Acetylcholinesterase (Homo sapiens, UniProt P22303)
Description: Inhibition of human recombinant AChE using acetylthiocholine iodide as substrate preincubated for 20 mins prior substrate addition measured after 5 mins by spectrophotometry

Cholinesterase [3] = biological target: T3, Cholinesterase (Homo sapiens, UniProt P06276)
Description: Inhibition of human serum BChE using butyrylthiocholine iodide as substrate preincubated for 20 mins prior substrate addition measured after 5 mins by spectrophotometry

in vitro = details: pig, PAMPA
Description: Permeability across porcine brain lipid layer after 240 mins by PAMPA-BBB assay

Cholinesterase [4] = biological target: T3, Cholinesterase; test: Ratio of (+/-)-huprine Y IC50 to compound IC50 for human serum BChE
[5] = Inhibition of self-induced Abeta1-42 aggregation after 24 hrs by thioflavin T fluorescence method
Acetylcholinesterase [6] = biological target: T2, Acetylcholinesterase; remark: listed apart in the source
Description: Competitive inhibition of human recombinant AChE by Lineweaver-Burk plot analysis

Beta-secretase 1 [7] = biological target: T1, Beta-secretase 1; details: 5 uM
Description: Inhibition of human recombinant BACE-1 using panvera peptide as substrate at 5 uM preincubated for 60 mins prior substrate addition measured after 60 mins by spectrofluorimetry

Acetylcholinesterase [8] = biological target: T4, Acetylcholinesterase (Bos taurus, UniProt P23795); test: Inhibition of bovine AChE-induced coumarin-tagged PrP106-126 aggregation after 48 hrs by fluorescence microscopy
T4 sequence (P23795 whole entry): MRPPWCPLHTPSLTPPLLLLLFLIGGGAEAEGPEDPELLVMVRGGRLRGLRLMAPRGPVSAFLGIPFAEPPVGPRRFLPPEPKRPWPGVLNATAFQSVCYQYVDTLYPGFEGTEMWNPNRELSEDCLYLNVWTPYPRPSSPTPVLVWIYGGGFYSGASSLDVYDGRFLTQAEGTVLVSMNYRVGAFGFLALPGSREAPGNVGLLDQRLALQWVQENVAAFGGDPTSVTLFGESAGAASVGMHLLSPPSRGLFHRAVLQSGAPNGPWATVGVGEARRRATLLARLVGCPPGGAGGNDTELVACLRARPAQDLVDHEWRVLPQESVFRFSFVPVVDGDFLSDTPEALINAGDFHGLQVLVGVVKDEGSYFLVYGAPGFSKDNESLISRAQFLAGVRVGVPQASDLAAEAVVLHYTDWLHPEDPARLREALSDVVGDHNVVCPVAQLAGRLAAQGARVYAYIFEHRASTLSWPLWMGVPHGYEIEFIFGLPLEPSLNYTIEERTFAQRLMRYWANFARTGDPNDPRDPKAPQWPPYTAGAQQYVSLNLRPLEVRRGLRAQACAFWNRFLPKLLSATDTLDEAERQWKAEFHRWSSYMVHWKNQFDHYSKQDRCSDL

Mus musculus = species: Mus musculus; test: animal or person; details: OF1, Brain, ip, 20 min, read-out: INH
Acetylcholinesterase [9] = biological target: T2, Acetylcholinesterase; test: Inhibition of human recombinant AChE-induced Abeta1-40 aggregation by thioflavin T fluorescence method

T3 sequence (P06276 whole entry): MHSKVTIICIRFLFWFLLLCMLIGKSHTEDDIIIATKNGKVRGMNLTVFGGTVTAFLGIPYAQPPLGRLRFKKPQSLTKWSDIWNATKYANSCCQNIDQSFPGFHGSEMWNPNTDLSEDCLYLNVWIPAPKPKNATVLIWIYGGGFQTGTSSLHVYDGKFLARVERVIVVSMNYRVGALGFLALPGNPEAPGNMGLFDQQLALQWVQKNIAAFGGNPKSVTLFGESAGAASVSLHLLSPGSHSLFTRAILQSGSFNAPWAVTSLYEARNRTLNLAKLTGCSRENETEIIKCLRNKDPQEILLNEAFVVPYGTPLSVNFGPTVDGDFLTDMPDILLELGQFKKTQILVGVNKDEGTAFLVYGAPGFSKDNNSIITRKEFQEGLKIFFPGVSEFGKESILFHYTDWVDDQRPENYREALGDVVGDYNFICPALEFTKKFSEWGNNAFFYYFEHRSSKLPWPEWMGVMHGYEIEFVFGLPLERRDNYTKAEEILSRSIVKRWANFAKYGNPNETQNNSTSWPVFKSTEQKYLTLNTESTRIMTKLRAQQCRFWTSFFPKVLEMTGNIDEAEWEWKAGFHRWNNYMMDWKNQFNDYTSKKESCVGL
T2 sequence (P22303 whole entry): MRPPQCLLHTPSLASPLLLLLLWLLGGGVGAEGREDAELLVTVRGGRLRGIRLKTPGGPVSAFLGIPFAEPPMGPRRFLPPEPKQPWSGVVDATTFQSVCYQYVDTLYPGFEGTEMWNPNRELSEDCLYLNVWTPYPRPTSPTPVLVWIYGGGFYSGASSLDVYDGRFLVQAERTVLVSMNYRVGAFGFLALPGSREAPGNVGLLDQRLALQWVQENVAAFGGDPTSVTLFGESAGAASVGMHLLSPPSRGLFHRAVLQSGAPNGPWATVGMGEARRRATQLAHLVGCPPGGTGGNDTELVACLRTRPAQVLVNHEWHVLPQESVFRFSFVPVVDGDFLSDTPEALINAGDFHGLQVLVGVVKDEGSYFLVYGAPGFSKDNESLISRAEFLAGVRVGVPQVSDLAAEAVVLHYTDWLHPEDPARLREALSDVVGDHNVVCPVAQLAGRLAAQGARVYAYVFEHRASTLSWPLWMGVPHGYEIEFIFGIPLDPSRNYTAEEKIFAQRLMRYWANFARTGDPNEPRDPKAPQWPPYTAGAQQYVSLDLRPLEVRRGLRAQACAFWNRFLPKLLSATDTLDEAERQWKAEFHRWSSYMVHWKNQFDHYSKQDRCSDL
T1 sequence (P56817 whole entry): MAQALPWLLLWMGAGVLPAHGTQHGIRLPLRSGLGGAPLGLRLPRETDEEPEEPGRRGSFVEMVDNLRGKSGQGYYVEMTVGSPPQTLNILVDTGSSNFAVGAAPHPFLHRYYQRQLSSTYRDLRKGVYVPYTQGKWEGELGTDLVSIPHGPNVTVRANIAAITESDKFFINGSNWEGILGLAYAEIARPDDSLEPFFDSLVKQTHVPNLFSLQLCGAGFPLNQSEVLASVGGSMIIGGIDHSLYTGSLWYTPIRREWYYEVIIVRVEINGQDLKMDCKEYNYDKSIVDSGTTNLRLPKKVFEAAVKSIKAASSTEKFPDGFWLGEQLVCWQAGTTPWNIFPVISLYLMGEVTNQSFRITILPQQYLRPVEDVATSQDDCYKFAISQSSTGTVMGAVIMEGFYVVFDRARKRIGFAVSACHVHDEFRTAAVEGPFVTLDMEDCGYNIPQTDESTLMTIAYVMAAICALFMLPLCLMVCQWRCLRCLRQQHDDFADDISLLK

SMILES	IC50 (Beta-secretase 1 [1]) [nM]	IC50 (Acetylcholinesterase [2]) [nM]	IC50 (Cholinesterase [3]) [nM]	Papp at 4 h (in vitro) [×10⁻⁶ cm/s]	further results
CC1=C[C@H]2Cc3nc4cc(Cl)ccc4c(NCCCCCCCNc4c5c(nc6cc(Cl)ccc46)CCCC5)c3[C@@H](C1)C2	5900	11.5	47.4		
CC1=CC2Cc3nc4cc(Cl)ccc4c(NCCCCCCCCCNc4c5c(nc6cc(Cl)ccc46)CCCC5)c3C(C1)C2.Cl.Cl.Cl.Cl (racemic)	5800	3.26	27.2	15.6	Ratio IC50 (Cholinesterase [4]): 6
CC1=C[C@@H]2Cc3nc4cc(Cl)ccc4c(NCCCCCCCNc4c5c(nc6ccccc46)CCCC5)c3[C@H](C1)C2		1.33	133		IC50 [5]: ≤ 10000 nM
CC1=CC2Cc3nc4cc(Cl)ccc4c(NCCCCCCCCCCNc4c5c(nc6cc(Cl)ccc46)CCCC5)c3C(C1)C2.Cl.Cl.Cl.Cl (racemic)	6600	9.09	76.6	29.1	
CC1=CC2Cc3nc4cc(Cl)ccc4c(NCCCCCCCNc4c5c(nc6cc(Cl)ccc46)CCCC5)c3C(C1)C2.Cl.Cl.Cl.Cl (racemic)		4.02	73.3	20.9	
CC1=CC2Cc3nc4cc(Cl)ccc4c(N)c3C(C1)C2 (racemic)			175		
CC1=CC2Cc3nc4cc(Cl)ccc4c(NCCCCCCCNc4c5c(nc6ccccc46)CCCC5)c3C(C1)C2.Cl.Cl.Cl (racemic)		1.89	87.1	12.5	IC50 [5]: ≤ 10000 nM
CC1=C[C@H]2Cc3nc4cc(Cl)ccc4c(NCCCCCCCNc4c5c(nc6ccccc46)CCCC5)c3[C@@H](C1)C2		6.84	139		IC50 [5]: ≤ 10000 nM
CC1=CC2Cc3nc4cc(Cl)ccc4c(NCCCCCCCCCCNc4c5c(nc6ccccc46)CCCC5)c3C(C1)C2.Cl.Cl.Cl (racemic)	7300	4.19	26.6	16.3	Ratio IC50 (Cholinesterase [4]): 6
CC1=C[C@@H]2Cc3nc4cc(Cl)ccc4c(NCCCCCCCNc4c5c(nc6cc(Cl)ccc46)CCCC5)c3[C@H](C1)C2	5700	2.04	86.8		Kic (Acetylcholinesterase [6]): 1.51 nM
CC1=CC2Cc3nc4cc(Cl)ccc4c(NCCCCCCCCCNc4c5c(nc6ccccc46)CCCC5)c3C(C1)C2.Cl.Cl.Cl (racemic)				6	
CC1=C[C@H]2Cc3nc4cc(Cl)ccc4c(N)c3[C@@H](C1)C2					inhibition (Beta-secretase 1 [7]): 13.6%
CC1=CC2Cc3nc4cc(Cl)ccc4c(NCCCCCCCCNc4c5c(nc6cc(Cl)ccc46)CCCC5)c3C(C1)C2.Cl (racemic)	4900	1.32	35.1	21.1	IC50 (Acetylcholinesterase [8]): 263 nM; inhibition in vivo at 10 µmol/kg (Mus musculus): 28.5%
CC1=CC2Cc3nc4cc(Cl)ccc4c(NCCCCCCNc4c5c(nc6ccccc46)CCCC5)c3C(C1)C2.Cl (racemic)		0.89	24.6	10.7	Ratio IC50 (Cholinesterase [4]): 6
CC1=CC2Cc3nc4cc(Cl)ccc4c(NCCCCCCNc4c5c(nc6cc(Cl)ccc46)CCCC5)c3C(C1)C2.Cl (racemic)		0.74	75.2	12	
CC1=CC2Cc3nc4cc(Cl)ccc4c(NCCCN(C)CCCNc4c5c(nc6cc(Cl)ccc46)CCCC5)c3C(C1)C2.Cl (racemic)		0.31	51.3	7	
CC1=CC2Cc3nc4cc(Cl)ccc4c(NCCCN(C)CCCNc4c5c(nc6ccccc46)CCCC5)c3C(C1)C2.Cl (racemic)		0.42	44.2	11.4	
CC1=CC2Cc3nc4cc(Cl)ccc4c(NCCCCCCCCNc4c5c(nc6ccccc46)CCCC5)c3C(C1)C2.Cl (racemic)		1.38	74.2	10.2	IC50 (Acetylcholinesterase [8]): 68.7 nM; IC50 (Acetylcholinesterase [9]): 61300 nM; inhibition in vivo at 10 µmol/kg (Mus musculus): 30%; IC50 [5]: ≤ 10000 nM
CC1=C[C@@H]2Cc3nc4cc(Cl)ccc4c(N)c3[C@H](C1)C2					inhibition (Beta-secretase 1 [7]): 14%
